# Test results reported in publication PMC7438494 (Communications Biology, 2020).
# Several values for one entry are separate records, joined by “and”; a condition that tells them apart may be missing. Equal entries are not always repeated. Where two headings read alike, the source gives them in different places.
# Target: human ATP synthase (Homo sapiens, UniProt P00846+P05496)
# Assay: biochemical
# Type: biochemical
# Details: for cyanide sensitive ATP produced, nmol/min/mg / cyanide sensitive ATP produced, pmol/min/mg: 60 min
# [1] = BDQ 5e-6 uM, […], frozen human mito, BDQ in DMSO
# [2] = BDQ 5e-6 uM, cyanide sensitive, frozen human mito, BDQ in DMSO
# [3] = BDQ 5e-5 uM, […], frozen human mito, BDQ in DMSO
# [4] = BDQ 5e-5 uM, cyanide sensitive, frozen human mito, BDQ in DMSO
# [5] = BDQ 0.0005 uM, […], frozen human mito, BDQ in DMSO
# [6] = BDQ 0.0005 uM, cyanide sensitive, frozen human mito, BDQ in DMSO
# [7] = BDQ 0.0005 uM, cyanide sensitive, human
# [8] = BDQ 0.005 uM, […], frozen human mito, BDQ in DMSO
# [9] = BDQ 0.005 uM, cyanide sensitive, frozen human mito, BDQ in DMSO
# [10] = BDQ 0.005 uM, cyanide sensitive, human
# [11] = BDQ 0.05 uM, cyanide sensitive, human
# [12] = BDQ 0.1 uM, […], frozen human mito, BDQ in DMSO
# [13] = BDQ 0.1 uM, cyanide sensitive, frozen human mito, BDQ in DMSO
# [14] = BDQ 0.1 uM, cyanide sensitive, human
# [15] = BDQ 0.2 uM, […], frozen human mito, BDQ in DMSO
# [16] = BDQ 0.2 uM, cyanide sensitive, frozen human mito, BDQ in DMSO
# [17] = BDQ 0.2 uM, cyanide sensitive, human
# [18] = BDQ 0.5 uM, […], frozen human mito, BDQ in DMSO
# [19] = BDQ 0.5 uM, cyanide sensitive, frozen human mito, BDQ in DMSO
compound,measurement,setting,value
"COc1nc2ccc(Br)cc2cc1[C@@H](c1ccccc1)[C@@](O)(CCN(C)C)c1cccc2ccccc12 [BDQ, Bedaquiline]",ATP synthesis,,7.2 nmol/min/mg
same,inhibition at 0.85 µM,,46%
same,"% activity, cyanide sensitive",[1],78.2096%
same,"% inhibition, cyanide sensitive",[1],21.7904%
same,"ATP produced, nmol/min/mg",[1],6.85 nmol/min/mg
same,"ATP produced, pmol/min/mg",[1],6850.84 pmol/min/mg
same,"cyanide sensitive ATP produced, nmol/min/mg",[2],5.63 nmol/min/mg
same,"cyanide sensitive ATP produced, pmol/min/mg",[2],5632.76 pmol/min/mg
same,Cyanide sensitive ATP synthesis,"BDQ 5e-6 uM, cyanide sensitive, human",6.1 nmol/min/mg and 8.3 nmol/min/mg
same,"% activity, cyanide sensitive",[3],74.3127%
same,"% inhibition, cyanide sensitive",[3],25.6873%
same,"ATP produced, nmol/min/mg",[3],6.57 nmol/min/mg
same,"ATP produced, pmol/min/mg",[3],6570.19 pmol/min/mg
same,"cyanide sensitive ATP produced, nmol/min/mg",[4],5.35 nmol/min/mg
same,"cyanide sensitive ATP produced, pmol/min/mg",[4],5352.10 pmol/min/mg
same,Cyanide sensitive ATP synthesis,"BDQ 5e-5 uM, cyanide sensitive, human",5.6 nmol/min/mg and 8.1 nmol/min/mg
same,% activity,[5],84.5005%
same,% inhibition,[5],15.4995%
same,"ATP produced, nmol/min/mg",[5],7.12 nmol/min/mg
same,"ATP produced, pmol/min/mg",[5],7115.12 pmol/min/mg
same,activity at 0.0005 µM,"BDQ 0.0005 uM, […], frozen human mito, BDQ in DMSO, read-out: % activity",84.5%
same,activity at 0.0005 µM,"BDQ 0.0005 uM, […], frozen human mito, BDQ in DMSO, read-out: % activity, cyanide sensitive",81.9%
same,inhibition at 0.0005 µM,"BDQ 0.0005 uM, […], frozen human mito, BDQ in DMSO, read-out: % inhibition",15.5%
same,inhibition at 0.0005 µM,"BDQ 0.0005 uM, […], frozen human mito, BDQ in DMSO, read-out: % inhibition, cyanide sensitive",18.1%
same,"cyanide sensitive ATP produced, nmol/min/mg",[6],5.90 nmol/min/mg
same,"cyanide sensitive ATP produced, pmol/min/mg",[6],5897.03 pmol/min/mg
same,Cyanide sensitive ATP synthesis,[7],7.7 nmol/min/mg and 4.7 nmol/min/mg and 7.8 nmol/min/mg
same,cyanide sensitive % activity,[7],71.1%
same,activity at 0.0005 µM,"BDQ 0.0005 uM, cyanide sensitive, human, read-out: cyanide sensitive % activity",81.5%
same,inhibition at 0.0005 µM,"BDQ 0.0005 uM, cyanide sensitive, human, read-out: cyanide sensitive % inhibition",18.5%
same,% activity,[8],99.3902%
same,% inhibition,[8],0.6098%
same,"ATP produced, nmol/min/mg",[8],8.37 nmol/min/mg
same,"ATP produced, pmol/min/mg",[8],8368.87 pmol/min/mg
same,activity at 0.005 µM,"BDQ 0.005 uM, […], frozen human mito, BDQ in DMSO, read-out: % activity",99.4%
same,activity at 0.005 µM,"BDQ 0.005 uM, […], frozen human mito, BDQ in DMSO, read-out: % activity, cyanide sensitive",99.3%
same,inhibition at 0.005 µM,"BDQ 0.005 uM, […], frozen human mito, BDQ in DMSO, read-out: % inhibition",0.6%
same,inhibition at 0.005 µM,"BDQ 0.005 uM, […], frozen human mito, BDQ in DMSO, read-out: % inhibition, cyanide sensitive",0.713%
same,"cyanide sensitive ATP produced, nmol/min/mg",[9],7.15 nmol/min/mg
same,"cyanide sensitive ATP produced, pmol/min/mg",[9],7150.78 pmol/min/mg
same,Cyanide sensitive ATP synthesis,[10],8.3 nmol/min/mg and 4.6 nmol/min/mg and 7.9 nmol/min/mg
same,cyanide sensitive % activity,[10],72.3%
same,activity at 0.005 µM,"BDQ 0.005 uM, cyanide sensitive, human, read-out: cyanide sensitive % activity",88.5%
same,Cyanide sensitive ATP synthesis,[11],6.8 nmol/min/mg and 4.7 nmol/min/mg and 3.8 nmol/min/mg
same,cyanide sensitive % activity,[11],71.8% and 64.1% and 43.8%
same,cyanide sensitive % inhibition,[11],28.2% and 35.9% and 56.2%
same,% activity,[12],65.6953%
same,% inhibition,[12],34.3047%
same,"ATP produced, nmol/min/mg",[12],5.53 nmol/min/mg
same,"ATP produced, pmol/min/mg",[12],5531.68 pmol/min/mg
same,activity at 0.1 µM,"BDQ 0.1 uM, […], frozen human mito, BDQ in DMSO, read-out: % activity",65.7%
same,activity at 0.1 µM,"BDQ 0.1 uM, […], frozen human mito, BDQ in DMSO, read-out: % activity, cyanide sensitive",59.9%
same,inhibition at 0.1 µM,"BDQ 0.1 uM, […], frozen human mito, BDQ in DMSO, read-out: % inhibition",34.3%
same,inhibition at 0.1 µM,"BDQ 0.1 uM, […], frozen human mito, BDQ in DMSO, read-out: % inhibition, cyanide sensitive",40.1%
same,"cyanide sensitive ATP produced, nmol/min/mg",[13],4.31 nmol/min/mg
same,"cyanide sensitive ATP produced, pmol/min/mg",[13],4313.60 pmol/min/mg
same,Cyanide sensitive ATP synthesis,[14],8.1 nmol/min/mg and 6.1 nmol/min/mg and 5.4 nmol/min/mg and 6.3 nmol/min/mg and 7.4 nmol/min/mg
same,cyanide sensitive % activity,[14],86.0% and 84.3% and 62.0% and 71.2% and 67.2%
same,% activity,[15],69.7127%
same,% inhibition,[15],30.2873%
same,"ATP produced, nmol/min/mg",[15],5.87 nmol/min/mg
same,"ATP produced, pmol/min/mg",[15],5869.95 pmol/min/mg
same,activity at 0.2 µM,"BDQ 0.2 uM, […], frozen human mito, BDQ in DMSO, read-out: % activity",69.7%
same,activity at 0.2 µM,"BDQ 0.2 uM, […], frozen human mito, BDQ in DMSO, read-out: % activity, cyanide sensitive",64.6%
same,inhibition at 0.2 µM,"BDQ 0.2 uM, […], frozen human mito, BDQ in DMSO, read-out: % inhibition",30.3%
same,inhibition at 0.2 µM,"BDQ 0.2 uM, […], frozen human mito, BDQ in DMSO, read-out: % inhibition, cyanide sensitive",35.4%
same,"cyanide sensitive ATP produced, nmol/min/mg",[16],4.65 nmol/min/mg
same,"cyanide sensitive ATP produced, pmol/min/mg",[16],4651.87 pmol/min/mg
same,Cyanide sensitive ATP synthesis,[17],5.6 nmol/min/mg and 4.0 nmol/min/mg and 5.2 nmol/min/mg and 4.4 nmol/min/mg and 5.1 nmol/min/mg
same,cyanide sensitive % activity,[17],55.4% and 59.9% and 49.8% and 46.9%
same,cyanide sensitive % inhibition,[17],44.6% and 40.1% and 50.2% and 53.1%
same,activity at 0.2 µM,"BDQ 0.2 uM, cyanide sensitive, human, read-out: cyanide sensitive % activity",59.5%
same,inhibition at 0.2 µM,"BDQ 0.2 uM, cyanide sensitive, human, read-out: cyanide sensitive % inhibition",40.5%
same,% activity,[18],36.7347%
same,% inhibition,[18],63.2653%
same,"ATP produced, nmol/min/mg",[18],3.09 nmol/min/mg
same,"ATP produced, pmol/min/mg",[18],3093.14 pmol/min/mg
same,activity at 0.5 µM,"BDQ 0.5 uM, […], frozen human mito, BDQ in DMSO, read-out: % activity",36.7%
same,activity at 0.5 µM,"BDQ 0.5 uM, […], frozen human mito, BDQ in DMSO, read-out: % activity, cyanide sensitive",26%
same,inhibition at 0.5 µM,"BDQ 0.5 uM, […], frozen human mito, BDQ in DMSO, read-out: % inhibition",63.3%
same,inhibition at 0.5 µM,"BDQ 0.5 uM, […], frozen human mito, BDQ in DMSO, read-out: % inhibition, cyanide sensitive",74%
same,"cyanide sensitive ATP produced, nmol/min/mg",[19],1.88 nmol/min/mg
same,"cyanide sensitive ATP produced, pmol/min/mg",[19],1875.05 pmol/min/mg
